Our source for the IC50, CC50 and melting point values is patent US7109338B2, “1,2-disubstituted 1,4-dihydro-4-oxoquinoline compounds” (priority 1999, dated 2006).

Data set [1] relates to echovirus type 11 (Echo 11, Gregory). The data set is described as follows: In vitro anti-picornavirus activity (MTT), Echo 11. As to conditions: Enterovirus B; HeLa-S3 cells, MTT method, 37° C. Type of data set: cell-based. Background: Tetrazolium assays rely on reduction of a dye to a coloured formazan, in cell work by metabolically active cells.
Data set [2] in a line: Cytotoxicity (MTT, without virus), HeLa(Ohio). As to conditions: human, HeLa (Ohio strain) cells (uninfected).
Data set [3] is described as follows: Cytotoxicity (MTT, without virus), HeLa. To be noted: human, HeLa cells (uninfected).
The next data set has as its system HRV 2 (HGP). The data set is described as follows: Anti-rhinovirus activity (MTT), HRV2. As to conditions: Human rhinovirus sp., HRV2; HeLa (Ohio strain) cells, MTT method, 33° C.; read-out: IC50 HRV2. Type of data set: cell-based, human rhinovirus.
The subject of a further data set is HRV 89 (41617-Gallo). The data set is described as follows: Anti-rhinovirus activity (MTT), HRV89. Type of data set: cell-based, human rhinovirus. To be noted: Human rhinovirus sp., HRV89; HeLa (Ohio strain) cells, MTT method, 33° C.; read-out: IC50 HRV89.
The test system of data set [4] is human rhinovirus type 1B (HRV 1B, B632). Nature of the data set: Anti-rhinovirus activity (MTT), HRV1B. Type of data set: cell-based. To be noted: Human rhinovirus sp., HRV1B; HeLa (Ohio strain) cells, MTT method, 33° C.; read-out: IC50 HRV1B.
The test system of data set [5] is coxsackievirus type A7 (CA7). Nature of the data set: In vitro anti-picornavirus activity (MTT), CA7. As to conditions: Coxsackievirus; HeLa-S3 cells, MTT method, 37° C. Type of data set: cell-based.
In data set [6] the test system is Poliovirus type 1 (Polio 1, Sabin). The data set is described as follows: microbe, parasite or virus in culture. As to conditions: Enterovirus C, HeLa S3, read-out: IC50 Polio 1. Type of data set: cell-based.
The nature of data set [7]: Cytotoxicity (MTT, without virus), HeLa-S3. As to conditions: human, HeLa-S3 cells (uninfected).
In data set [8] the test system is coxsackievirus type B4 (CB4,JVB). The data set is described as follows: In vitro anti-picornavirus activity (MTT), CB4. As to conditions: Coxsackievirus; HeLa cells, MTT method, 37° C. In kind it is cell-based.
For another data set, the system named is HRV1A (E28). Nature of the data set: Anti-rhinovirus activity (MTT), HRV1A. In kind it is cell-based, human rhinovirus. To be noted: Human rhinovirus sp., HRV1A, HeLa, read-out: IC50 HRV 1A.
The test system of a further data set is HRV14 (1059). Nature of the data set: Anti-rhinovirus activity (MTT), HRV14. In kind it is cell-based, human rhinovirus. To be noted: Human rhinovirus sp., HRV14; HeLa (Ohio strain) cells, MTT method, 33° C.; read-out: IC50 HRV 14.

Converted amounts (≈) assume the structure as drawn.

Turning to `CCn1c(-c2ccccc2)c(C)c(=O)c2cc(C(C)C)ccc21` [Compound A37, 1-Ethyl-2-phenyl-3-methyl-6-isopropyl-1,4-dihydro-4-oxoquinoline], the melting point (in general, the temperature, or range, at which the solid turns liquid) lay in the range of 159 to 165 °C. The IC50 (as a rule, the point on the concentration scale where inhibition reaches its midpoint) in data set [1] turned out to be 0.91 µg/mL (≈ 2.98 µM). Moreover, it took 11 µg/mL (≈ 36 µM) to reach half-maximal cytotoxicity in [2] (CC50 at 4 days). In data set [3], the CC50 (usually the concentration that lowers cell viability or growth by half) at 4 days stood at 11 µg/mL (≈ 36 µM). The IC50 in the data set with HRV 2 (HGP) amounted to 0.83 µg/mL (≈ 2.72 µM). The IC50 in the data set on HRV 89 (41617-Gallo) was 0.54 µg/mL (≈ 1.77 µM). Also, the IC50 in data set [4] worked out at 1 µg/mL (≈ 3.27 µM). Further, the IC50 in [5] was found to be 3.8 µg/mL (≈ 12.4 µM). Besides, the IC50 in data set [6] worked out at 1.1 µg/mL (≈ 3.6 µM). Also, the CC50 at 4 days in [7] stood at 12 µg/mL (≈ 39.3 µM). In data set [8], this compound gave an IC50 of 6.7 µg/mL (≈ 21.9 µM).
Compound `CCn1c(-c2ccc(OC)c(C)c2)c(C)c(=O)c2c(C)c(OCC(C)C)ccc21` [Compound A191, 1-Ethyl-2-(3-methyl-4-methoxyphenyl)-3,5-dimethyl-6-isobutoxy-1,4-dihydro-4-oxoquinoline] displayed a melting point of 149 °C. In data set [1], the IC50 came out at 0.19 µg/mL (≈ 0.483 µM). This compound came in with a CC50 at 4 days in [2] of more than 4 µg/mL. Besides, the CC50 at 4 days in data set [3] is more than 4 µg/mL. Moreover, in the data set on HRV 2 (HGP), the IC50 was determined as 0.15 µg/mL (≈ 0.381 µM). The IC50 in the data set on HRV 89 (41617-Gallo) stood at 0.2 µg/mL (≈ 0.508 µM). In [4], the IC50 stood at 1.3 µg/mL (≈ 3.3 µM). The compound further yielded an IC50 in [5] of 2.5 µg/mL (≈ 6.35 µM). For the same compound, the IC50 in data set [6] was determined as 0.4 µg/mL (≈ 1.02 µM). Besides, the CC50 at 4 days in [7] is more than 4 µg/mL. Moreover, the IC50 in data set [8] turned out to be 1.6 µg/mL (≈ 4.07 µM).
For `CCn1c(-c2ccco2)cc(=O)c2cc(C(C)C)ccc21` [Compound A304, 1-Ethyl-2-(2-furyl)-6-isopropyl-1,4-dihydro-4-oxoquinoline], the melting point lay in the range of 70 to 73 °C. Besides, the IC50 in [1] was found to be 0.35 µg/mL (≈ 1.24 µM). Besides, in data set [2], the midpoint of cytotoxicity, the CC50 at 4 days, lay at 19 µg/mL (≈ 67.5 µM). Further, in [3], the CC50 at 4 days was 18 µg/mL (≈ 64 µM). The concentration for half-maximal inhibition (IC50) with HRV 2 (HGP) stood at 0.34 µg/mL (≈ 1.21 µM). For the same compound, the IC50 in the data set with HRV 89 (41617-Gallo) amounted to 0.9 µg/mL (≈ 3.2 µM). Moreover, in data set [4], the IC50 amounted to 0.76 µg/mL (≈ 2.7 µM). In data set [5], the IC50 worked out at 3.6 µg/mL (≈ 12.8 µM). Moreover, in data set [6], the IC50 stood at 0.8 µg/mL (≈ 2.84 µM). For the same compound, in data set [7], the CC50 at 4 days was more than 20 µg/mL. In data set [8], this compound had an IC50 of 1.9 µg/mL (≈ 6.75 µM).
Turning to `CCn1c2c(c(=O)c3cc(C(C)C)ccc31)Cc1ccccc1-2` [Compound B2, 5-Ethyl-8-isopropyl-5,10-dihydro-11H-indeno[1,2-b]quinolin-10-one], the IC50 is 0.19 µg/mL (≈ 0.626 µM) in data set [1]; 5 µg/mL (≈ 16.5 µM) in the data set on HRV1A (E28); 0.15 µg/mL (≈ 0.494 µM) in the data set on HRV 2 (HGP); 0.48 µg/mL (≈ 1.58 µM) with HRV 89 (41617-Gallo); 0.54 µg/mL (≈ 1.78 µM) in [4]; 3.1 µg/mL (≈ 10.2 µM) in data set [5]. The half-inhibitory concentration (IC50) in data set [6] amounted to 0.58 µg/mL (≈ 1.91 µM); in the data set on HRV14 (1059), 0.65 µg/mL (≈ 2.14 µM); in data set [8], 0.97 µg/mL (≈ 3.2 µM). For the same compound, the half-maximal cytotoxic concentration (CC50) at 4 days in data set [2], in [3] and in data set [7] was more than 10 µg/mL throughout.
The compound `CCn1c2c(c(=O)c3cc(C(C)C)ccc31)Cc1ccsc1-2` [Compound D50, 10-Ethyl-7-isopropyl-5,10-dihydro-4H-thieno[3′,2′:4,5]cyclopenta[1,2-b]quinolin-5-one] returned a melting point of 168 to 169 °C. In data set [1], this compound returned an IC50 of 0.27 µg/mL (≈ 0.873 µM). The CC50 at 4 days in data set [2] was more than 10 µg/mL. Besides, the 50% cytotoxic concentration (CC50) at 4 days in data set [3] was determined as 7.8 µg/mL (≈ 25.2 µM). Moreover, the IC50 with HRV1A (E28) was 2.2 µg/mL (≈ 7.11 µM). For the same compound, the IC50 in the data set on HRV 2 (HGP) amounted to 0.2 µg/mL (≈ 0.646 µM). Besides, the IC50 in the data set on HRV 89 (41617-Gallo) is 0.41 µg/mL (≈ 1.32 µM). For the same compound, the IC50 in [4] is 0.25 µg/mL (≈ 0.808 µM). Also, in data set [5], inhibition was half-maximal at 1.9 µg/mL (≈ 6.14 µM) (IC50). Further, the IC50 in data set [6] stood at 0.64 µg/mL (≈ 2.07 µM). The IC50 in the data set on HRV14 (1059) was 1.3 µg/mL (≈ 4.2 µM). In data set [7], this compound showed a CC50 at 4 days of more than 10 µg/mL. For the same compound, half-maximal inhibition in data set [8] (IC50) required 0.82 µg/mL (≈ 2.65 µM).
`CCn1c2c(c(=O)c3cc(C(C)C)ccc31)Cc1cc(C)sc1-2` [Compound D51, 10-Ethyl-7-isopropyl-2-methyl-5,10-dihydro-4H-thieno[3′,2′:4,5]cyclopenta[1,2-b]quinolin-5-one]: the IC50 is 0.21 µg/mL (≈ 0.649 µM) in data set [1]; 3.1 µg/mL (≈ 9.58 µM) in the data set on HRV1A (E28); 0.27 µg/mL (≈ 0.835 µM) in the data set with HRV 2 (HGP); 0.35 µg/mL (≈ 1.08 µM) with HRV 89 (41617-Gallo); 0.59 µg/mL (≈ 1.82 µM) in data set [4]; 1.1 µg/mL (≈ 3.4 µM) in [5]. Also, the values for the IC50 (in data set [6]; in the data set with HRV14 (1059); in data set [8]) were 0.28 µg/mL (≈ 0.866 µM), 0.82 µg/mL (≈ 2.54 µM) and 0.72 µg/mL (≈ 2.23 µM), respectively. The CC50 at 4 days in data set [2], in [3] and in data set [7] was more than 5 µg/mL throughout.
Turning to `CCn1c2c(c(=O)c3cc(C(C)C)ccc31)Cc1c(C)csc1-2` [Compound D52, 10-Ethyl-7-isopropyl-3-methyl-5,10-dihydro-4H-thieno[3′,2′:4,5]cyclopenta[1,2-b]quinolin-5-one], the melting point was 195 °C (dec.). In data set [1], this compound registered an IC50 of 0.55 µg/mL (≈ 1.7 µM). The same compound gave a CC50 at 4 days in data set [2] of more than 5 µg/mL. Besides, the CC50 at 4 days in data set [3] is more than 5 µg/mL. For the same compound, the IC50 in the data set on HRV1A (E28) stood at 3.1 µg/mL (≈ 9.58 µM). Moreover, the IC50 in the data set on HRV 2 (HGP) came to 0.86 µg/mL (≈ 2.66 µM). For the same compound, in the data set on HRV 89 (41617-Gallo), the IC50 is 0.85 µg/mL (≈ 2.63 µM). Moreover, the IC50 in data set [4] stood at 0.89 µg/mL (≈ 2.75 µM). Moreover, the IC50 in [5] was more than 5 µg/mL. In addition, the IC50 in data set [6] is 1 µg/mL (≈ 3.09 µM). Moreover, the IC50 in the data set with HRV14 (1059) was determined as 1.1 µg/mL (≈ 3.4 µM). In [7], the CC50 at 4 days is more than 5 µg/mL. Further, inhibition in data set [8] was half-maximal at 3 µg/mL (≈ 9.27 µM) (IC50).
As to `CCn1c2c(c(=O)c3cc(C(C)C)ccc31)Cc1c-2ccn1C` [Compound D53, 4-Ethyl-7-isopropyl-1-methyl-4,9-dihydro-10H-pyrrolo[2′,3′:4,5]cyclopenta[1,2-b]quinolin-9-one], the melting point is 91 to 93 °C. The same compound returned an IC50 in [1] of 0.68 µg/mL (≈ 2.22 µM). Moreover, in [2], the CC50 at 4 days was more than 10 µg/mL. The CC50 at 4 days in [3] is more than 10 µg/mL. Besides, the IC50 with HRV1A (E28) is more than 10 µg/mL. Moreover, in the data set on HRV 2 (HGP), the IC50 turned out to be 0.91 µg/mL (≈ 2.97 µM). Moreover, the IC50 in the data set with HRV 89 (41617-Gallo) was 1.4 µg/mL (≈ 4.57 µM). In addition, the IC50 in data set [4] was found to be 1.6 µg/mL (≈ 5.22 µM). The IC50 in data set [5] was more than 10 µg/mL. The IC50 in data set [6] worked out at 1.8 µg/mL (≈ 5.87 µM). The IC50 in the data set on HRV14 (1059) was 2.3 µg/mL (≈ 7.51 µM). The same compound had a CC50 at 4 days in data set [7] of more than 10 µg/mL. This compound showed an IC50 in data set [8] of more than 3.3 µg/mL.
